Assay results published in patent publication US9266933B2, “Polypeptides inhibiting neovascularization and uses thereof” (SHANGHAI FIRST PEOPLE'S HOSPITAL, priority 2011, dated 2016).
“Also recorded” adds a separate entry of the source.

Experiments:
mouse cornea = experiment: Mouse corneal stroma micropocket model of VEGF-induced pathological angiogenesis; assay type: in vivo, C57BL/6 mice; conditions: VEGF + ZY3 low (0.5 μg/granule) and high (2 μg/granule) concentration, 5 days after operation, compared with VEGF group; **P<0.01
Method: Mice model of the corneal stroma micropocket was used and the methods were as follows:
Male C57BL/6 mice (4-5 week old) were intraperitoneally injected with 2% pentobarbital (about 0.1 ml/mouse) for anesthesia. 4% hydrochloric oxybuprocaine ophthalmic solution was locally administrated. Under the stereo microscope, OT syringe needle and 2 ml syringe needle were used to perform a blunt dissection between the layers of corneal stroma at 0.8-1 mm from corneoscleral limbus. A pouch of about 0.6×0.8 mm was formed. […] Neovascularization area were calculated as followed: Area (mm^2)=0.5*3.14*VL (mm)*CN*0.4 (mm) SPSS1L 0.1 was used for statistical analysis.

[1] = system: Human Umbilical Vein Endothelial Cells (HUVECs); experiment: Matrigel lumen formation assay of HUVECs; assay type: cell-based; conditions: VEGF + ZY3 in different concentrations (incl. 160 μM), 6 hours, compared with VEGF group; concentration-dependent; *P<0.05
Method: The Matrigel method was used as follows:
A 50 μl/well Matrigel (purchased from BD Co.) was added into a 96-well plate, and then the plate was incubated at 37° C. for 30 min. Upon solidification, the primary HUVECs were inoculated onto the surface of Matrigel with an inoculation concentration of 8×10^6/ml. Then the serum-free culture medium ECM as negative control, VEGF (100 ng/ml) (purchased from Sigma Co.) as positive control, VEGF (100 ng/well)+small peptide ZY3 in different concentrations as treatment groups were added in each well. The plate wad incubated at 37° C. After treating for 6 hours, photos were taken for cells in 3 randomized fields in the plate under the microscope (×200 fold.), and the sum of the maximum lumina diameter formed in the cells was calculated. Finally, SPSS11.0.1 was used for statistical analysis.

[2] = system: chick embryo chorioallantoic membrane; experiment: Angiogenesis in chick embryo chorioallantoic membrane model; assay type: in vivo; conditions: low (10 μg/piece) and high (50 μg/piece) concentration on filter paper, 2 days, compared with PBS group; **P<0.01
Method: Model of chick embryo chorioallantoic membrane was used and the methods were as follows:
Upon sterilization, the chick fertile eggs of 1-2 days old (purchased from 36 Lianhuaqing Chicken Farm of Shanghai Xinghuo Farm) were placed into a thermhygrostat (purchased from Shanghai Boxun industrial Co., ltd. SPX-250C) (T=37° C., Humidity H=60-70%) to incubate for 5 days. Every day, the eggs were overturned for one time at morning and night. Onto the filter paper (Whatman quantitative filter papers, Sigma, ashless, Grade 42, Cat No 1442-042, 42.5 mm Φ×100 circles) containing cortisone acetate (5 μg/μl, 5 μl/piece), PBS (5 μl/piece), low (2 μg/μl) or high (10 μg/μl) concentration of small peptides ZY3 (5 μl/piece) were dropped respectively. After air-dried, the filter paper was placed between the major vessels on chorioallantoic membrane of fertile eggs and the eggs were sealed. The eggs were placed in the thermhygrostat (T=37° C., Humidity H=60-70%) to incubate for another 2 days (24 hours a day) without overturning. Then the chorioallantoic membrane was thoroughly exposed and photographed (the range was within 5 mm around the filter paper). The number of 3-5 subordinate microvessels in the area within 2.5 mm around the filter paper was counted. SPSS11.0.1 was used for statistical analysis.

[3] = system: Human Umbilical Vein Endothelial Cells (HUVECs); experiment: MTS proliferation assay of VEGF-stimulated HUVECs; assay type: cell-based; conditions: VEGF + ZY3 in different concentrations, 24-hour incubation, compared with VEGF group; concentration-dependent; *P<0.05, **P<0.01
Method: The MTS method was used as follows:
Primary Human Umbilical Vein Endothelial Cells (HUVECs) (purchased from ScienCell Co.) were inoculated into a 96-well plate with an inoculation concentration of 2×10^4/ml. After cells had adhered to the wall, serum-free culture medium ECM was added and the cells were cultivated at 37° C. for 24 hours. Then the serum-free culture medium ECM as negative control, VEGF (100 ng/ml) (purchased from Sigma Co.) as positive control, VEGF (100 ng/well)+small peptide ZY3 in different concentrations as treatment groups were added in each well. After a 24-hour incubation, 20 μl 1 MTS solution (purchased from Promega Corporation) was added in each well. After incubation at 37° C. for 4 hours, the absorbance in each well was measured at 490 nm by using microplate reader (Bio-Rad Co.). The proliferation activity of cells was determined according to OD490. Finally, SPSS11.0.1 was used for statistical analysis.
Derived Polypeptides were prepared as follows, and the inhibition effect of each ZY3 derived polypeptides on proliferation of Human Umbilical Vein Endothelial Cells HUVECs was determined according to the methods in Example 3.

TANVTMQLLKIRSGDRPSYVELTFSQH (angiogenesis-inhibiting peptide ZY3)
corneal angiogenesis (neovascularization area on mouse cornea) (mouse cornea): significantly inhibited
lumen formation of HUVECs (sum of maximum lumina diameter) [1]: significantly inhibited
angiogenesis of chick embryo chorioallantoic membrane (count of 3-5 subordinate microvessels within 2.5 mm around the filter paper) [2]: significant inhabitation effects; also recorded: significantly inhibited
proliferation of HUVECs (OD490, MTS) [3]: significantly inhibited
